Assay results published in patent US20140263071A1, “METHOD FOR COLLECTING METALS” (CHEMEC OY AB, priority 2011, published 2014).
Read-outs that look alike come from different tables or passages of the source.

Legend:
[1] = Solubility of the compounds, molybdenum blue method, UV/Vis 880 nm (Example 6); assay type: physicochemical; settings: saturated aqueous solution
Text: The low solubility is achieved by using long carbon chain(s) or aromatic ring(s) in the bisphosphonate structure I. Advantageously, compound I contains 7-16 carbon atoms either in chain, branched chain or cyclic structure or in combination of these structural units between A and X, and preferably in the chain starting from the P-C-P bridging carbon and the number of heteroatomic functional groups excluding the phosphorous functionalities are limited to two or three groups. The solubility decreases even more if compound I contains functional groups which are capable to form twitter ions with each other. Typical examples of twitter ions are acids (e.g., —CO2H or —PO3H2) and bases (amines) in the same molecule. Solubilities of selected bisphosphonate compounds I were determined with UV/Vis spectrophotometer at 880 nm using molybdenum blue method (Finnish Standard Association SFS 3026: Determination of phosphate in water. Finnish Standard Association SFS, Helsinki Finland, 1986).
Solubilities of selected compounds were determined with UV/Vis Spectrophotometer at 880 nm using molybdenum blue method from saturated aqueous samples solutions (Finnish Standard Association SFS 3026: Determination of phosphate in water. Finnish Standard Association SFS, Helsinki Finland, 1986).

[2] = Concentration of diluted samples, recovery after 1:10000 dilution (Example 24); settings: 1e 1 g in 10 liters
Experimental: A water solution (100 ml) containing 100 ppb of desired metallic element prepared from Merch Titrisol® standard was diluted to 10 liters of water, pH was adjusted and the mixture was treated with 1e (1 g) for 24 h with stirring. After filtration trough sintered disc (porosity G-4), the solids were decomposed by using microware digestion, the residue was dilution to known volume of water (10 ml) and metal concentrations were determined by using AAS method.

[3] = Expulsion of Cu^2+, Ni^2+ and Fe^3+ without and with activated carbon (Example 9); settings: pH 3, without activated carbon
Experimental: (§1) A water solution (110 ml) containing known amount of single cationic element or elements, typically 0.5-200 ppm, was prepared from Merch Titrisol® standard solution. After adjusting pH by using acid (e.g. HCl or HNO3) or base (e.g. NaOH) to desired initial value, sample A (10 ml) was taken followed by adding 100 mg of selected solid complexation agent. The mixture was stirred at room temperature for 24 h and sample B (10 ml) was taken. Samples A and B were filtrated separately trough 0.2 μm syringe filter and the concentration of the studied element or elements in both solution was determined by using atomic absorption spectrophotometer. The expulsion percent was determined from the concentration differences between the sample solutions A and B.
Using the general procedure described above expulsion percent of Cu^2+, Ni^2+ and Fe^3+ cations were determined at pH 3, when compounds 2a, 2b, 5b, 6b and 6c were used as complexation agents. Experiments were repeated also by adding activated carbon (100 mg) to solution at the same time with the used complexation agent.

[4] = Collection of Cu^2+ ions from solution with the prepared bisphosphonates (Example 26); settings: 1.00 ppm Cu^2+; pH 3; 50 mg bisphosphonate in 50 ml
Experimental: as §1
A solution containing 1.00 ppm of Cu^2+ cations at pH 3 was prepared and 50 ml of that solution was treated with the desired solid bisphosphonate (50 mg) using the procedure described in general procedure. Collection-% was determined for the following compounds (Cu^2+ collection-% in parenthesis): 3a (16%), 3b (88%), 3c (93%), 4 (95%), 5a (20%), 5b (18%), 5c (85%), 6b (48%), 6c (100%), 6d (100%), 7a (88%), 7b (100%), 8b (85%), 8c (88%), 8d (94%), 8e (73%) and 9b (76%).

[5] = Removal of Cr^3+ from acidic solution, TS 4 diluted 1:100 (Example 19); settings: TS 4 diluted 1:100, pH 3.67, 1.0 g agent in 50 ml, 24 h
Experimental: A test solution containing 24000 mg/l of Na^+; 50-2000 mg/l of Ca^2+, Cr^3+, K^+ and Mg^2+; and trace amount of Al^3+, Fe^2/3+, Mn^2+, Ni^2+, Sr^2+, V^4+, and Zn^2+ cations were prepared.
TS 4 was diluted to 1:100 with water, pH (3.67) of the solution was determined and sample A was taken. A part (50 ml) of the diluted solution was treated with 1a, 6d or 7a (1.0 g) for 24 h with stirring at room temperature. After filtration trough 0.2 μm syringe filter, the expulsion per for Cr(III) was determined compared to original solution A. The results of expulsion per cents of Cr^3+ and some other elements are given in Table 13.

[6] = read-out: mg/l (solubility calculated for whole molecule)
[7] = read-out: mg/l P (solubility calculated as elemental phosphorus)

Structure (SMILES) | solubility [1, 6] [mg/L] | solubility [1, 7] [mg/L] | Cu^2+ collection-% [4] [%] | further results
NCCCCCCCC(O)(P(=O)(O)O)P(=O)(O)O [Compound 1b, 8-Amino-1-hydroxyoctane-1,1-diyldiphosphonic acid] | 2220 | 426 | – | –
NCCCCCCCCC(O)(P(=O)(O)O)P(=O)(O)O [Compound 1c, 9-Amino-1-hydroxynonane-1,1-diyldiphosphonic acid] | 2180 | 400 | – | –
NCCCCCCCCCC(O)(P(=O)(O)O)P(=O)(O)O [Compound 1d, 10-Amino-1-hydroxydecane-1,1-diyldiphosphonic acid] | 227 | 40 | – | –
NCCCCCCCCCCCC(O)(P(=O)(O)O)P(=O)(O)O [Compound 1e, 12-Amino-1-hydroxydodecane-1,1-diyldiphosphonic acid] | 31 | 5 | – | Yield [%] (recovery) ([2]; Cd^2+, pH 3.6): 98%; Yield [%] (recovery) ([2]; Cr^3+, pH 3.0): 98%; Yield [%] (recovery) ([2]; Cr^3+, pH 7.0): 97%; Yield [%] (recovery) ([2]; Hg^2+, pH 2.0): 93%; Yield [%] (recovery) ([2]; Hg^2+, pH 4.9): 94%; Yield [%] (recovery) ([2]; Hg^2+, pH 9.2): 94%; Yield [%] (recovery) ([2]; Hg^+, pH 2.0): 89%; Yield [%] (recovery) ([2]; Hg^+, pH 5.0): 92%; Yield [%] (recovery) ([2]; Hg^+, pH 9.2): 92%; Yield [%] (recovery) ([2]; Pb^2+, pH 3.2): 100%; Yield [%] (recovery) ([2]; Pb^2+, pH 5.0): 85%; Yield [%] (recovery) ([2]; UO2^2+, pH 3.0): 87%
NCCCCCCCCCCCCCCCC(O)(P(=O)(O)O)P(=O)(O)O [Compound 1f, 16-Amino-1-hydroxyhexadecane-1,1-diyldiphosphonic acid] | 42 | 6 | – | –
CNCCCCCCCCCCC(O)(P(=O)(O)O)P(=O)(O)O [Compound 2a, 1-Hydroxy-11-(methylamino)undecane-1,1-diyldiphosphonic acid] | 594 | 97 | – | Expulsion [%] Cu^2+ [3]: 16.4%; Expulsion [%] Fe^3+ [3]: 44.7%; Expulsion [%] Ni^2+ [3]: 13.3%
O=P(O)(O)C(O)(CCCCCCCCCCO)P(=O)(O)O [Compound 2b, 1,11-Dihydroxyundecane-1,1-diyldiphosphonic acid] | 22900 | 3870 | – | Expulsion [%] Cu^2+ [3]: 100.0%; Expulsion [%] Fe^3+ [3]: 92.6%; Expulsion [%] Ni^2+ [3]: 6.9%
CCCCCC(O)(P(=O)(O)O)P(=O)(O)O [Compound 3a, 1-Hydroxyhexane-1,1-diyldiphosphonic acid] | 54 | 12 | 16 | –
CCCCCCCCC(O)(P(=O)(O)O)P(=O)(O)O [Compound 3b, 1-Hydroxynonane-1,1-diyldiphosphonic acid] | 5 | 1 | 88 | –
CCCCCCCCCCC(O)(P(=O)(O)O)P(=O)(O)O [Compound 3c, 1-Hydroxyundecane-1,1-diyldiphosphonic acid] | – | 0.3 | 93 | –
CCCCCCCC/C=C\CCCCCCCC(O)(P(=O)(O)O)P(=O)(O)O [Compound 4, (Z)-1-Hydroxyoctadec-9-ene-1,1-diyldiphosphonic acid] | – | – | 95 | –
O=P(O)(O)C(O)(CCCCc1ccccc1)P(=O)(O)O [Compound 5a, 1-Hydroxy-5-phenylpentane-1,1-diyldiphosphonic acid] | – | 1.8 | 20 | –
Nc1ccc(CCCC(O)(P(=O)(O)O)P(=O)(O)O)cc1 [Compound 5b, 4-(4-Aminophenyl)-1-hydroxybutane-1,1-diyldiphosphonic acid] | – | 79 | 18 | Expulsion [%] Cu^2+ [3]: 21.4%; Expulsion [%] Fe^3+ [3]: 56.3%; Expulsion [%] Ni^2+ [3]: 7.9%
O=P(O)(O)C(O)(CCCCCCc1ccccc1)P(=O)(O)O [Compound 5c, 1-Hydroxy-7-phenylheptane-1,1-diyldiphosphonic acid] | – | 0.2 | 85 | –
CCCCCCCCCCC(P(=O)(O)O)P(=O)(O)O [Compound 6b, Undecane-1,1-diyldiphosphonic acid] | – | 0.7 | 48 | Expulsion [%] Cu^2+ [3]: 1.3%; Expulsion [%] Fe^3+ [3]: 3.9%; Expulsion [%] Ni^2+ [3]: 17.2%
CCCCCCCCCCCCC(P(=O)(O)O)P(=O)(O)O [Compound 6c, Tridecane-1,1-diyldiphosphonic acid] | – | 0.2 | 100 | Expulsion [%] Cu^2+ [3]: 20.8%; Expulsion [%] Fe^3+ [3]: 19.0%; Expulsion [%] Ni^2+ [3]: 20.8%
CCCCCCCCCCCCCCCCC(P(=O)(O)O)P(=O)(O)O [Compound 6d, Heptadecane-1,1-diyldiphosphonic acid] | – | 0.03 | 100 | Expulsion [%] Ca^2+ ([5]; Ca^2+): 11%; Expulsion [%] Cr^3+ [5]: 100%; Expulsion [%] K^+ ([5]; K^+): 52%; Expulsion [%] Mg^2+ ([5]; Mg^2+): 80%; Expulsion [%] Na^+ ([5]; Na^+): 39%
CCCCCCCCC(N)(P(=O)(O)O)P(=O)(O)O [Compound 7a, 1-Aminononane-1,1-diyldiphosphonic acid] | – | 0.08 | 88 | Expulsion [%] Cr^3+ [5]: 85%
CCCCCCCCCC(N)(P(=O)(O)O)P(=O)(O)O [Compound 7b, 1-Aminodecane-1,1-diyldiphosphonic acid] | – | 0.05 | 100 | –
C[N+](C)(C)CCCCCCCCCCC(O)(P(=O)(O)O)P(=O)(O)O.[Cl-] [Compound 8b, 11-Hydroxy-N,N,N-trimethyl-11,11-diphosphonoundecan-1-aminium chloride] | – | – | 85 | –
CC(=O)NCCCCCCCCCCC(O)(P(=O)(O)O)P(=O)(O)O [Compound 8c, 11-Acetamido-1-hydroxyundecane-1,1-diyldiphosphonic acid] | – | – | 88 | –
O=C(O)CCCCCCCCCCSCC(P(=O)(O)O)P(=O)(O)O [Compound 8d, 11-((2,2-diphosphonoethyl)thio)undecanoic acid] | – | – | 94 | –
O=C(O)CCCCCNCC(P(=O)(O)O)P(=O)(O)O [Compound 8e, 6-((2,2-diphosphonoethyl)amino)hexanoic acid] | – | – | 73 | –
CCCCCCCCCCCC(=O)OC(C)(P(=O)(O)O)P(=O)(O)O [Compound 9b, 1-(Dodecanoyloxy)ethane-1,1-diyldiphosphonic acid] | – | – | 76 | –
